Values quoted from earlier work as cited in US7858379B2, “Apparatus and method for determining the concentration of iodine-containing organic compounds in an aqueous solution” (Lynntech, Inc., priority 2007, dated 2010).

Legend:
[1] = through the process of glomerular filtration

Row | Structure (SMILES) | protein binding | excretion [1]
1 | CC(=O)N(CC(O)CO)c1c(I)c(C(=O)NCC(O)CO)c(I)c(C(=O)NCC(O)CO)c1I (stereo not shown) [Iohexol] | do not bind to protein | totally excreted by the kidney
2 | CNC(=O)c1c(I)c(NC(C)=O)c(I)c(C(=O)O)c1I [Iothalamate] | do not bind to protein | totally excreted by the kidney
